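1) Cells in 96-well plates. 2) Compound, 48 h, 5 concentrations. 3) Linear interpolation between surrounding doses. 4) Unreached endpoint = highest concentration. Abbreviation: GI50, concentration required for 50% inhibition of growth.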 Active and inactive are the calls of the source. Cut-off read from the data, not from the text of the source: active = GI50 up to about 1.1 µM and inactive = higher.
Tests used:
Assay in all cases: growth of human tumour cells (NCI), 48 h
ACHN = system: ACHN
CAKI-1 = system: CAKI-1
EKVX = system: EKVX
HCT-116 = system: HCT-116
HOP-62 = system: HOP-62
HT-29 = system: HT-29
LOX IMVI = system: LOX IMVI
M14 = system: M14
Malme-3M = system: Malme-3M
OVCAR-3 = system: OVCAR-3
OVCAR-4 = system: OVCAR-4
OVCAR-5 = system: OVCAR-5
SK-MEL-5 = system: SK-MEL-5
SK-OV-3 = system: SK-OV-3
SNB-75 = system: SNB-75
SW-620 = system: SW-620
T47D = system: T47D
TK-10 = system: TK-10
UACC-257 = system: UACC-257
UACC-62 = system: UACC-62

| SMILES | GI50 (ACHN) | GI50 (CAKI-1) | GI50 (EKVX) | GI50 (HCT-116) | GI50 (HOP-62) | GI50 (HT-29) | GI50 (LOX IMVI) | GI50 (M14) | GI50 (Malme-3M) | GI50 (OVCAR-3) | GI50 (OVCAR-4) | GI50 (OVCAR-5) | GI50 (SK-MEL-5) | GI50 (SK-OV-3) | GI50 (SNB-75) | GI50 (SW-620) | GI50 (T47D) | GI50 (TK-10) | GI50 (UACC-257) | GI50 (UACC-62) |
| --- | --- | --- | --- | --- | --- | --- | --- | --- | --- | --- | --- | --- | --- | --- | --- | --- | --- | --- | --- | --- |
| c1nc(NCCc2c[nH]cn2)c2nc[nH]c2n1 | > 100 µM (inactive) | > 100 µM (inactive) | 46.2 µM (inactive) | > 100 µM (inactive) | > 100 µM (inactive) | > 100 µM (inactive) | > 100 µM (inactive) | > 100 µM (inactive) | > 100 µM (inactive) | > 100 µM (inactive) | > 100 µM (inactive) | > 100 µM (inactive) | > 100 µM (inactive) | > 100 µM (inactive) | 64.3 µM (inactive) | > 100 µM (inactive) | > 100 µM (inactive) | > 100 µM (inactive) | > 100 µM (inactive) | > 100 µM (inactive) |
| Cn1ccnc1Sc1ccc(/C=N/c2ccc3nc(SCC(=O)NC4CCCCC4)sc3c2)cc1[N+](=O)[O-] | 16.6 µM (inactive) | > 100 µM (inactive) | > 100 µM (inactive) | 25.9 µM (inactive) | 28.4 µM (inactive) | > 100 µM (inactive) | 95.1 µM (inactive) | 38.2 µM (inactive) | > 100 µM (inactive) | 91.6 µM (inactive) | > 100 µM (inactive) | > 100 µM (inactive) | > 100 µM (inactive) | 20.2 µM (inactive) | 2.7 µM (inactive) | > 100 µM (inactive) | > 100 µM (inactive) | 15.6 µM (inactive) | > 100 µM (inactive) | 19.5 µM (inactive) |
| N#Cc1c(-c2ccc([N+](=O)[O-])cc2)cc(-c2ccc(Nc3ccnc4cc(Cl)ccc34)cc2)nc1N | 30.5 µM (inactive) | 20.9 µM (inactive) | 16.9 µM (inactive) | 2.3 µM (inactive) | 9.46 µM (inactive) | 2.71 µM (inactive) | 1.45 µM (inactive) | 21.1 µM (inactive) | 21.5 µM (inactive) | 6.67 µM (inactive) | 2.82 µM (inactive) | 30.8 µM (inactive) | 25.9 µM (inactive) | 32 µM (inactive) | 11.4 µM (inactive) | > 21.7 µM (inactive) | 4.81 µM (inactive) | 25.9 µM (inactive) | 26.5 µM (inactive) | 26.7 µM (inactive) |
| CCCCNC(=S)Nc1nc(C(=O)NNC(=O)c2ccccc2)cs1 | 15.9 µM (inactive) | 20.9 µM (inactive) | 12.8 µM (inactive) | 13.1 µM (inactive) | 18 µM (inactive) | 24 µM (inactive) | 10.1 µM (inactive) | 14.9 µM (inactive) | 18.7 µM (inactive) | 6.14 µM (inactive) | 9.29 µM (inactive) | 17.6 µM (inactive) | 10.8 µM (inactive) | 17.5 µM (inactive) | 32.6 µM (inactive) | 14 µM (inactive) | 11.5 µM (inactive) | 19.6 µM (inactive) | 17.9 µM (inactive) | 17.6 µM (inactive) |
| CCN(CC)c1ccc(NC(=S)NN(C)C)cc1 | > 10 µM (inactive) | > 10 µM (inactive) | > 10 µM (inactive) | > 10 µM (inactive) | > 10 µM (inactive) | > 10 µM (inactive) | > 10 µM (inactive) | > 10 µM (inactive) | > 10 µM (inactive) | > 10 µM (inactive) | > 10 µM (inactive) | – | > 10 µM (inactive) | > 10 µM (inactive) | > 10 µM (inactive) | > 10 µM (inactive) | > 10 µM (inactive) | > 10 µM (inactive) | > 10 µM (inactive) | > 10 µM (inactive) |
| COc1ccc(CN(Cc2ccc(OC)cc2)C(=O)CC2(O)C=CCC2)cc1 (centres undefined) | > 100 µM (inactive) | 46.7 µM (inactive) | 46.1 µM (inactive) | 55.3 µM (inactive) | > 100 µM (inactive) | 66.7 µM (inactive) | > 100 µM (inactive) | > 100 µM (inactive) | > 100 µM (inactive) | 98.2 µM (inactive) | 80 µM (inactive) | > 100 µM (inactive) | 32.9 µM (inactive) | > 100 µM (inactive) | 81.8 µM (inactive) | > 100 µM (inactive) | 39.4 µM (inactive) | > 100 µM (inactive) | 43.4 µM (inactive) | 57.7 µM (inactive) |
| COc1cc(/C=C2\N=C(c3ccccc3)N(c3ccc4c(c3)Sc3cc(N5C(=O)/C(=C/c6cc(OC)c(OC)c(OC)c6)N=C5c5ccccc5)ccc3N4)C2=O)cc(OC)c1OC | 19 µM (inactive) | 18.5 µM (inactive) | 22.8 µM (inactive) | 42 µM (inactive) | 25.5 µM (inactive) | > 100 µM (inactive) | 22.4 µM (inactive) | 31.6 µM (inactive) | 19.5 µM (inactive) | 20.8 µM (inactive) | 18.9 µM (inactive) | 20.6 µM (inactive) | 16.5 µM (inactive) | 21.3 µM (inactive) | 24.7 µM (inactive) | 42.7 µM (inactive) | 25.2 µM (inactive) | 16.9 µM (inactive) | 16.9 µM (inactive) | 16.9 µM (inactive) |
| CS(=O)(=O)c1ccc(NNc2cc(=O)[nH]c(=O)[nH]2)cc1 | > 100 µM (inactive) | > 10 µM (inactive) | – | > 100 µM (inactive) | > 100 µM (inactive) | > 100 µM (inactive) | > 100 µM (inactive) | > 100 µM (inactive) | > 100 µM (inactive) | > 100 µM (inactive) | > 100 µM (inactive) | > 100 µM (inactive) | > 100 µM (inactive) | > 100 µM (inactive) | > 100 µM (inactive) | > 100 µM (inactive) | > 100 µM (inactive) | 0.0155 µM (active) | > 100 µM (inactive) | > 100 µM (inactive) |
| CC(=O)[C@@H](C)C(=O)N1C(=O)OC[C@@]12[C@@H]1CC[C@@H](C1)C2(C)C | > 100 µM (inactive) | 71.8 µM (inactive) | > 100 µM (inactive) | > 100 µM (inactive) | > 100 µM (inactive) | > 100 µM (inactive) | > 100 µM (inactive) | > 100 µM (inactive) | > 100 µM (inactive) | – | > 100 µM (inactive) | > 100 µM (inactive) | > 100 µM (inactive) | > 100 µM (inactive) | > 100 µM (inactive) | > 100 µM (inactive) | > 100 µM (inactive) | > 100 µM (inactive) | > 100 µM (inactive) | > 100 µM (inactive) |
| COC(=O)CCC1=C(CC(=O)OC)C(C)(OC)N/C1=N/C(=O)OCc1ccccc1 (centres undefined) | > 100 µM (inactive) | > 100 µM (inactive) | > 100 µM (inactive) | > 100 µM (inactive) | > 100 µM (inactive) | > 100 µM (inactive) | > 100 µM (inactive) | > 100 µM (inactive) | > 100 µM (inactive) | – | > 100 µM (inactive) | > 100 µM (inactive) | > 100 µM (inactive) | > 100 µM (inactive) | > 100 µM (inactive) | > 100 µM (inactive) | > 100 µM (inactive) | > 100 µM (inactive) | > 100 µM (inactive) | > 100 µM (inactive) |
| O=[N+]([O-])c1cccc(/N=N/c2c(O)ccc3ccccc23)c1 | – | > 100 µM (inactive) | 35.2 µM (inactive) | > 100 µM (inactive) | 35 µM (inactive) | > 100 µM (inactive) | > 100 µM (inactive) | > 100 µM (inactive) | 63.1 µM (inactive) | > 10 µM (inactive) | 66.8 µM (inactive) | > 100 µM (inactive) | 75.7 µM (inactive) | 35.2 µM (inactive) | 91 µM (inactive) | 57 µM (inactive) | > 100 µM (inactive) | 44.7 µM (inactive) | > 100 µM (inactive) | 41.4 µM (inactive) |
| CC(=O)OC(C)(C)CCC(=O)[C@](C)(O)[C@H]1[C@H](O)C[C@@]2(C)[C@@H]3CCc4c(cc(OC5OC(CO)C(O)C(O)C5O)c(O)c4C)C3(C)C(=O)C[C@]12C (some centres undefined) | > 100 µM (inactive) | > 100 µM (inactive) | > 100 µM (inactive) | > 100 µM (inactive) | > 100 µM (inactive) | > 100 µM (inactive) | > 100 µM (inactive) | > 100 µM (inactive) | > 100 µM (inactive) | > 100 µM (inactive) | > 100 µM (inactive) | > 100 µM (inactive) | > 100 µM (inactive) | > 100 µM (inactive) | > 100 µM (inactive) | > 100 µM (inactive) | > 100 µM (inactive) | > 100 µM (inactive) | > 100 µM (inactive) | > 100 µM (inactive) |
| COc1cc2c(cc1C[N+](C)(C)CSc1ccccc1)-c1ccccc1CC2 | 15.3 µM (inactive) | 13.5 µM (inactive) | 10.6 µM (inactive) | 2.24 µM (inactive) | 11.4 µM (inactive) | 2.25 µM (inactive) | 4 µM (inactive) | 2.07 µM (inactive) | 1.71 µM (inactive) | 2.29 µM (inactive) | 5.98 µM (inactive) | 12 µM (inactive) | 1.17 µM (inactive) | 12.6 µM (inactive) | 1.19 µM (inactive) | 10.4 µM (inactive) | 2.91 µM (inactive) | 8.77 µM (inactive) | 2.52 µM (inactive) | 2.52 µM (inactive) |
| CCOC(=O)c1nc2ccccc2nc1NCc1ccc(OC)cc1 | > 100 µM (inactive) | > 100 µM (inactive) | > 100 µM (inactive) | 54.8 µM (inactive) | > 100 µM (inactive) | 96.4 µM (inactive) | > 100 µM (inactive) | – | > 100 µM (inactive) | > 100 µM (inactive) | > 100 µM (inactive) | > 100 µM (inactive) | > 100 µM (inactive) | > 100 µM (inactive) | 48.8 µM (inactive) | > 100 µM (inactive) | 80.9 µM (inactive) | 17 µM (inactive) | > 100 µM (inactive) | 84.1 µM (inactive) |

Source: ChEMBL document CHEMBL1201862, “PubChem BioAssay data set” (2004)
